Data from PMC7935272 (PLoS Pathogens, 2021).
Several values for one entry are separate records, joined by “and”; a condition that tells them apart may be missing. Equal values may be shown once. Read-outs that look alike come from different tables or passages of the source.

Assays:
WT MeV L-P complexes = WT MeV L-P complexes (Measles virus, UniProt Q9WMB3); experiment: In vitro MeV RdRP assay, de novo initiation, 16-nt template, L WT; type: biochemical; details: de novo RNA synthesis, S9 Fig
in vitro = type: cell-based, African green monkey; details: African green monkey; Vero-hSLAM, 72 hours
Procedure: (§1) To determine cytotoxic concentrations Vero-hSLAM cells were plated in 96 well plates (1.1 × 10^4 per well) and incubated with three-fold serial dilutions of compound. After incubation of uninfected cells for 72 hours, PrestoBlue substrate (Invitrogen) was added to quantify cell metabolic activity as described. Signal was measured using a BioTek H1 synergy multimode microplate reader. Where applicable, cytotoxic concentrations (CC50) were calculated based on four-parameter variable slope regression modeling.

Vero-hSLAM cells [1] = experiment: in vitro; type: cell-based, African green monkey
Procedure: as §1

MeV [2] = experiment: Antiviral dose-response assay, MeV-NanoPEST reporter virus in Vero-hSLAM cells
Procedure: Compound was added in three-fold dilutions to 96-well plates seeded with Vero-hSLAM cells (1.1 × 10^4 per well), followed by infection (MOI = 0.2 TCID50 units per cell) with a recombinant MeV-NanoPEST reporter virus harboring Nano luciferase [36]. After 30-hour incubation, Nano luciferase signals were quantified using a BioTek Synergy H1 multimode plate reader. Raw data were normalized according to norm. value [%] = (RLUsample—RLUmin) / (RLUmax—RLUmin)*100, with RLUmax representing vehicle (DMSO) volume equivalent-treated infected wells and RLUmin representing infected wells exposed to 1 mg/ml cycloheximide. Four-parameter variable slope regression modeling was used to determine EC50 and EC90 concentrations.

MeV [3] = experiment: Synergy analysis ERDRP-0519 and GHP-88309, antiviral; type: cell-based; details: ERDRP519 0.00 µM
Vero-hSLAM cells [4] = tested on: Vero-hSLAM cells

WT MeV L-P complexes, sequence (Q9WMB3 whole entry): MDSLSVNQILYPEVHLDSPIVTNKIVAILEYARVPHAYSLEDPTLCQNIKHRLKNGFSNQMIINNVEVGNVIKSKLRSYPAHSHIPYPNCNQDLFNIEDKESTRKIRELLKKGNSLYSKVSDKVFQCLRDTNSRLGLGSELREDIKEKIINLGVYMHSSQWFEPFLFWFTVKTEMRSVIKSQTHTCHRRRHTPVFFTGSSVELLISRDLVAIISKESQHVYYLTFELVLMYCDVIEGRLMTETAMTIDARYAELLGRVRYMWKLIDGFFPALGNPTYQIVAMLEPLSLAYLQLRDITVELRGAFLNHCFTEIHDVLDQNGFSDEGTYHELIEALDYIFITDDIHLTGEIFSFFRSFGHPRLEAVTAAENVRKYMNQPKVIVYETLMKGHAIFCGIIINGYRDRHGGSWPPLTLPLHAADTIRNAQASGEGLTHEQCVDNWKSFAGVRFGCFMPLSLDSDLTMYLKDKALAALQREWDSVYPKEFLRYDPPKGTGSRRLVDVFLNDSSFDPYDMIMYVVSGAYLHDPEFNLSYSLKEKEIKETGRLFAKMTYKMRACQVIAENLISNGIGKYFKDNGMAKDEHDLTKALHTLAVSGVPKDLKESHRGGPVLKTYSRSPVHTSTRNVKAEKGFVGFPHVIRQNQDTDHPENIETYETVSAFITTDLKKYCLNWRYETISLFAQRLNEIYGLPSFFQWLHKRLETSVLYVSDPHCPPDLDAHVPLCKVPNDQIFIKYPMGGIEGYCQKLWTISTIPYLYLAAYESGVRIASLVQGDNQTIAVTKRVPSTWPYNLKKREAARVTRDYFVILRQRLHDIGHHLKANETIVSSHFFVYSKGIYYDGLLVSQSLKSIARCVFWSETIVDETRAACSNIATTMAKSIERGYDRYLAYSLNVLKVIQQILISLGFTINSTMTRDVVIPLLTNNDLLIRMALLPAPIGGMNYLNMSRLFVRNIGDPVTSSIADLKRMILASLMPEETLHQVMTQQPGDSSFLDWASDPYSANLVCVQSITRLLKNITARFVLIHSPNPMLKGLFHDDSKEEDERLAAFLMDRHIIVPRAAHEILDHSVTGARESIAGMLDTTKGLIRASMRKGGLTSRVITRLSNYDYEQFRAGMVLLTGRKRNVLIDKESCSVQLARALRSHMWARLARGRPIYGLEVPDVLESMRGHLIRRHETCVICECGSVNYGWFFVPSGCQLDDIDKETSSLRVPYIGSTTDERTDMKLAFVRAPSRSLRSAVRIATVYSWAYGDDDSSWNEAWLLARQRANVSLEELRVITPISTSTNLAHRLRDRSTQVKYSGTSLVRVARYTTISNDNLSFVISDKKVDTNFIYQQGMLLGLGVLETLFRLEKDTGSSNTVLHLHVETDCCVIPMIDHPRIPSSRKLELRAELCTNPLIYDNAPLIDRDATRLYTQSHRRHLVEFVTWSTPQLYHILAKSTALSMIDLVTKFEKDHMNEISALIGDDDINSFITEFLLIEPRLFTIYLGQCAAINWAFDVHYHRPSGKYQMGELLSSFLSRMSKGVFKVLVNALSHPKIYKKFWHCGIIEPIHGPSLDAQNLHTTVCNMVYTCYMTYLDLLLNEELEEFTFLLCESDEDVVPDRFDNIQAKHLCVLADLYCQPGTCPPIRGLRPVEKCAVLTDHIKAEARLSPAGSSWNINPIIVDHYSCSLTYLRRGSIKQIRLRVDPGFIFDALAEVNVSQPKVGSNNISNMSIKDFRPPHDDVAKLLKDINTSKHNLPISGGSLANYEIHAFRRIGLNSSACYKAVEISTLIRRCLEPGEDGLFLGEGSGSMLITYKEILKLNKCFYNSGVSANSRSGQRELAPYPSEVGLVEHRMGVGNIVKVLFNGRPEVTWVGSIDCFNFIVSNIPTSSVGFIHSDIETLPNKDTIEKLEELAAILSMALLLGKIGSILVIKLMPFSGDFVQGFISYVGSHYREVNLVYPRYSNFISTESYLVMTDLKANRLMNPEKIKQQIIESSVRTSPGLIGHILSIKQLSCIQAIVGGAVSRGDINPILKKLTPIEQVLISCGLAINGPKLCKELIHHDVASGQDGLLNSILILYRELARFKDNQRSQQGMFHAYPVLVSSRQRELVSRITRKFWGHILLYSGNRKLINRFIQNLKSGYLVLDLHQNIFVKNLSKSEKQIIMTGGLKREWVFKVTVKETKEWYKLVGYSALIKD
WT MeV L-P complexes, sequence (Q9WMB4 whole entry partner): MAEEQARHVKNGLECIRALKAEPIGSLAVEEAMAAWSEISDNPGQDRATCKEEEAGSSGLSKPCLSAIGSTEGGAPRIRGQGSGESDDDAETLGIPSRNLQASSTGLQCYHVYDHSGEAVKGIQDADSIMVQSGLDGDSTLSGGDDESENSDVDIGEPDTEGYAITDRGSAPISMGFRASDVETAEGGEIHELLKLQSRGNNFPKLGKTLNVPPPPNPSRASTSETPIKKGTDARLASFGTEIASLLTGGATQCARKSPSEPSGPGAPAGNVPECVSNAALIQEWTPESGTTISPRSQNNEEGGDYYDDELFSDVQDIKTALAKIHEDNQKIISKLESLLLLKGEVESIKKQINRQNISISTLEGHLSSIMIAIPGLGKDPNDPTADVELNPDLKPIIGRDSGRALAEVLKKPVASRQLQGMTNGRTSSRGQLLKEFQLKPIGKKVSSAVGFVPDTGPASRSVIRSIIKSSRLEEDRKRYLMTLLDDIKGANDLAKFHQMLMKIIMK

Compound: Cn1nc(C(F)(F)F)cc1C(=O)Nc1ccc(S(=O)(=O)N2CCCC[C@@H]2CCOCc2ccc(N=[N+]=[N-])cc2)cc1 [ERDRP-0519az, S(=O)(=O)(N1[C@@H](CCOCc2ccc(N=[N+]=[N-])cc2)CCCC1)c1ccc(NC(=O)c2n(C)nc(C(F)(F)F)c2)cc1]
- bioactivity in the in vitro RdRP assay (WT MeV L-P complexes): diminished potency
- CC50 (in vitro): > 100 µM
- Cytotoxicity, normalized metabolic activity (Figure 5B) (Vero-hSLAM cells [1]; cpd concentration 0.045725): 97.5938 and 98.2663 and 103.31
- Cytotoxicity, normalized metabolic activity (Figure 5B) (Vero-hSLAM cells [1]; cpd concentration 0.137174): 101.061 and 94.8618 and 104.907
- Cytotoxicity, normalized metabolic activity (Figure 5B) (Vero-hSLAM cells [1]; cpd concentration 0.411523): 95.7655 and 116.003 and 116.276
- Cytotoxicity, normalized metabolic activity (Figure 5B) (Vero-hSLAM cells [1]; cpd concentration 1.23457): 92.9074 and 113.376 and 114.469
- Cytotoxicity, normalized metabolic activity (Figure 5B) (Vero-hSLAM cells [1]; cpd concentration 3.7037): 94.1683 and 104.487 and 118.02
- Cytotoxicity, normalized metabolic activity (Figure 5B) (Vero-hSLAM cells [1]; cpd concentration 11.1111): 88.7254 and 96.8582 and 105.432
- Cytotoxicity, normalized metabolic activity (Figure 5B) (Vero-hSLAM cells [1]; cpd concentration 33.3333): 97.5097 and 90.4066 and 94.9249
- Cytotoxicity, normalized metabolic activity (Figure 5B) (Vero-hSLAM cells [1]; cpd concentration 100): 99.0228 and 98.1192 and 101.776
- cytotoxicity (Vero-hSLAM cells [1]; highest concentration tested (100 μM)): No cytotoxicity was detectable
- EC50 (MeV [2]): 12.1 µM
- MeV inhibition, normalized reporter signal (Figure 5B) (MeV [2]; cpd concentration 0.045725): 95.5633 and 136.086 and 77.2785
- MeV inhibition, normalized reporter signal (Figure 5B) (MeV [2]; cpd concentration 0.137174): 112.785 and 92.1722 and 86.1147
- MeV inhibition, normalized reporter signal (Figure 5B) (MeV [2]; cpd concentration 0.411523): 116.552 and 130.546 and 132.822
- MeV inhibition, normalized reporter signal (Figure 5B) (MeV [2]; cpd concentration 1.23457): 119.15 and 109.045 and 127.688
- MeV inhibition, normalized reporter signal (Figure 5B) (MeV [2]; cpd concentration 11.1111): 44.8748 and 67.0329 and 58.1588
- MeV inhibition, normalized reporter signal (Figure 5B) (MeV [2]; cpd concentration 33.3333): 8.061 and 7.668 and 10.5185
- MeV inhibition, normalized reporter signal (Figure 5B) (MeV [2]; cpd concentration 100): 2.512 and 3.634 and 2.904

Compound: NC(=O)c1c(F)cccc1-c1cccc2cnccc12 [GHP88309]
- S4 A antiviral matrix, normalized value (MeV [3]; GHP88309 0.03 µM): 100.00
- S4 A antiviral matrix, normalized value (MeV [3]; GHP88309 0.08 µM): 78.32 and 88.03 and 100.19 and 97.70
- S4 A antiviral matrix, normalized value (MeV [3]; GHP88309 0.74 µM): 50.86 and 41.77 and 80.59 and 41.41
- S4 A antiviral matrix, normalized value (MeV [3]; GHP88309 2.22 µM): 14.61 and 17.48 and 22.13 and 11.92
- S4 B cytotoxicity matrix, normalized value (Vero-hSLAM cells [4]): 100.00
- S4 B cytotoxicity matrix, normalized value (Vero-hSLAM cells [4]; ERDRP519 0.00 µM, GHP88309 0.27 µM): 99.90
- S4 B cytotoxicity matrix, normalized value (Vero-hSLAM cells [4]; ERDRP519 0.00 µM, GHP88309 0.82 µM): 99.44 and 91.52
- S4 B cytotoxicity matrix, normalized value (Vero-hSLAM cells [4]; ERDRP519 0.00 µM, GHP88309 7.41 µM): 97.69
- S4 B cytotoxicity matrix, normalized value (Vero-hSLAM cells [4]; ERDRP519 0.00 µM, GHP88309 66.67 µM): 98.85 and 98.57
- S4 B cytotoxicity matrix, normalized value (Vero-hSLAM cells [4]; ERDRP519 0.00 µM, GHP88309 200.00 µM): 92.50 and 87.59 and 94.52
